One assay deals with Serine protease 1 (Homo sapiens, UniProt P07477). Nature of the assay: The value of binding constant measured against human trypsin.
The next assay concerns the target Prothrombin (Homo sapiens, UniProt P00734). Kind of assay: The value of binding constant measured against human Thrombin.
The target of another assay is Coagulation factor X (Homo sapiens, UniProt P00742). Nature of the assay: The value of binding constant measured against coagulation factor X (factor Xa).
In a further assay the target is T1, Coagulation factor VII (Homo sapiens, UniProt P08709).
T1 sequence (P08709 whole entry): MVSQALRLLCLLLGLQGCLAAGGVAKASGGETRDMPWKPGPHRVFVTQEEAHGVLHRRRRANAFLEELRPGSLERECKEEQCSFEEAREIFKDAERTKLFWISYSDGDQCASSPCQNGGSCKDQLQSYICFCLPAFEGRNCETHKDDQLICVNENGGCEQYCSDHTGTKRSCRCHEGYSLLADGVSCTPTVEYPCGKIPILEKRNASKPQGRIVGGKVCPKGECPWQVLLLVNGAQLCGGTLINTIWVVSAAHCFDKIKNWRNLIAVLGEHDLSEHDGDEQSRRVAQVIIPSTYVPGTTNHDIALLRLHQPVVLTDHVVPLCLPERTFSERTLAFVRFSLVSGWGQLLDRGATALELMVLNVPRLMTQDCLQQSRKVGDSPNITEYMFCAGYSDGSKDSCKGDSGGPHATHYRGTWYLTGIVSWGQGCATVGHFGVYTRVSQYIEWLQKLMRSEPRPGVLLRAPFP
Nature of the assay: The value of binding constant measured against coagulation factor VII.

Where only a bound is given, the exact number is not on record here.

One may read the Ki as the dissociation constant of the complex between target and ligand, obtained from inhibition or displacement. Low values mean higher affinity, high ones lower affinity.

Serine protease 1, sequence (P07477 whole entry): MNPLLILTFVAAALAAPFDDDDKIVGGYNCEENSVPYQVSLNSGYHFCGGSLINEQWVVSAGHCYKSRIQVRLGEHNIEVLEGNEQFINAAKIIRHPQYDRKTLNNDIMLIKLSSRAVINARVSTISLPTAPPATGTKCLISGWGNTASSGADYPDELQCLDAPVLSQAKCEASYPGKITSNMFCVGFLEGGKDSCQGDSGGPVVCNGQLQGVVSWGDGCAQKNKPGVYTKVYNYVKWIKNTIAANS
Coagulation factor X, sequence (P00742 41-179 limits assumed): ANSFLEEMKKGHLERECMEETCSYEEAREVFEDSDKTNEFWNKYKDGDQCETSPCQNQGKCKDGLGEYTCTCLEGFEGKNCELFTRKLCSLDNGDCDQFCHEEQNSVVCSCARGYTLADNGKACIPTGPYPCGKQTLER
Coagulation factor X, sequence (P00742 235-488 limits assumed): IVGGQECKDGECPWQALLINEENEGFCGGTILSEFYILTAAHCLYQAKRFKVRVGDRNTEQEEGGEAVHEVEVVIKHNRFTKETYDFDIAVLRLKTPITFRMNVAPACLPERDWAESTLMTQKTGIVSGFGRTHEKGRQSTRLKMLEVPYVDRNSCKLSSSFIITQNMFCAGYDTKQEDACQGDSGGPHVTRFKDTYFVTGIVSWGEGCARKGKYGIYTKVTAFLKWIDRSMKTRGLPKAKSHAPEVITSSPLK

In the case of `COc1cc([C@@H](Nc2ccc(C(=N)N)cc2)C(=O)N[C@H](C(=O)O)c2ccccc2)c(S(=O)(=O)c2ccccc2)cc1OCc1ccccc1`, the results for the Ki at Serine protease 1, on Prothrombin and on Coagulation factor X were 50 nM, 540 nM and 12400 nM, respectively.

As for `COc1cc([C@@H](Nc2ccc(C(=N)N)cc2)C(=O)N[C@H](C(=O)O)c2ccccc2)ccc1OCc1ccccc1`, the Ki at Serine protease 1 stood at 40 nM; at Prothrombin, 35 nM; at Coagulation factor X it was 8000 nM.

Take `COc1cc(C(Nc2ccc(C(=N)N)cc2)C(=O)NCc2ccccc2)ccc1OCc1ccccc1` (stereo unspecified): the inhibition constant (Ki) on Coagulation factor VII is 220 nM; at Serine protease 1 it was 210 nM; on Prothrombin, 43 nM; at Coagulation factor X, 5300 nM.

Consider `COc1cc(CNc2ccc(C(=N)N)cc2)ccc1OCc1ccccc1`, for which the inhibition constant Ki at Coagulation factor VII was 1000 nM; on Serine protease 1 it was 580 nM; at Prothrombin, 270 nM; at Coagulation factor X it was 1200 nM.

On to `COc1ccc(C(Nc2ccc(C(=N)N)cc2)C(=O)NCc2ccccc2)cc1OC` (stereo unspecified), for which the Ki at Coagulation factor VII amounted to 350 nM; at Serine protease 1, 1700 nM; on Prothrombin, 460 nM; at Coagulation factor X, 30000 nM.

For `COc1cc(C(Nc2ccc(C(=N)N)cc2)C(=O)NCc2ccccc2)c(S(=O)(=O)c2ccccc2)cc1OCc1ccccc1` (stereo unspecified), the inhibition constant Ki is 160 nM at Coagulation factor VII, 420 nM at Serine protease 1, 1700 nM on Prothrombin and above 74000 nM at Coagulation factor X.

Turning to `COc1cc(CNc2ccc(C(=N)N)cc2)c(NS(C)(=O)=O)cc1OCc1ccccc1`, the inhibition constant Ki at Coagulation factor VII came to 380 nM; on Serine protease 1 it was 400 nM; on Prothrombin, 1400 nM; on Coagulation factor X it was 26000 nM.

Take `CCOc1cc(C(Nc2ccc(C(=N)N)cc2)C(=O)NCc2ccccc2)ccc1OCc1ccccc1` (stereo unspecified): the inhibition constant (Ki) at Coagulation factor VII worked out at 130 nM; at Serine protease 1, 1100 nM; on Prothrombin, 48 nM; at Coagulation factor X it was 4500 nM.

Consider `CCOc1ccc(CNc2ccc(C(=N)N)cc2)cc1OCC`, for which the inhibition constant Ki was 2000 nM on Serine protease 1, 4500 nM at Prothrombin and 39000 nM at Coagulation factor X.

Consider `CCOc1ccc(C(Nc2ccc(C(=N)N)cc2)C(=O)NCc2ccccc2)cc1OCC` (stereo unspecified), for which the Ki on Coagulation factor VII is 40 nM; on Serine protease 1, 2000 nM; on Prothrombin, 570 nM; on Coagulation factor X, 19000 nM.

As for `COc1cc([C@@H](Nc2ccc(C(=N)N)cc2)C(=O)N[C@H](C(=O)O)c2ccccc2)c(C(=O)Cc2ccccc2)cc1OCc1ccccc1`, the Ki on Coagulation factor VII was 7 nM; on Serine protease 1 it was 80 nM; on Prothrombin it was 6400 nM; on Coagulation factor X, 19000 nM.

Source of the values: ChEMBL document CHEMBL1144307, “Design of selective phenylglycine amide tissue factor/factor VIIa inhibitors” (Bioorg Med Chem Lett, 2005).
